Measured values: ChEMBL document CHEMBL4002633, “Synthesis, evaluation and quantitative structure-activity relationship (QSAR) analysis of Wogonin derivatives as cytotoxic agents” (Bioorg Med Chem Lett, 2017)

Legend:
[1] = tested on: HepG2; assay: Cytotoxicity against human HepG2 cells assessed as reduction in cell viability after 48 hrs by MTT assay; format: functional, cell-based; conditions: HepG2, 48 h
[2] = tested on: A549; assay: Cytotoxicity against human A549 cells assessed as reduction in cell viability after 48 hrs by MTT assay; format: functional, cell-based; conditions: A549, 48 h
[3] = Cytotoxicity against human BCG823 cells assessed as reduction in cell viability after 48 hrs by MTT assay; format: functional, cell-based; conditions: BCG823, 48 h
[4] = tested on: HepG2; assay: Potency index, ratio of 5-fluorouracil IC50 to compound IC50 for human HepG2 cells; format: functional
[5] = tested on: A549; assay: Potency index, ratio of 5-fluorouracil IC50 to compound IC50 for human A549 cells; format: functional
[6] = Potency index, ratio of 5-fluorouracil IC50 to compound IC50 for human BCG823 cells; format: functional

Row | Compound | IC50 ([1]; read-out: IC50) [µM] | IC50 ([1]; read-out: pIC50 (converted)) [µM] | IC50 [2] [µM] | IC50 [3] [µM] | Ratio IC50 [4] | Ratio IC50 [5] | Ratio IC50 [6]
1 | COc1c(OCc2ncc(C)o2)cc(O)c2c(=O)cc(-c3ccccc3)oc12 | 20.2 | 20.4 | > 100 |  |  |  | 
2 | COc1c(OCCCCN2CCNCC2)cc(O)c2c(=O)cc(-c3ccccc3)oc12 | 1.07 | 1.07 | 1.74 | 0.98 | 18 | 9 | 17
3 | O=c1cc(-c2ccccc2)oc2c(OCCCCNC3CCCCC3)c(O)cc(O)c12 | 10.9 | 11 |  | 48.6 |  |  | 
4 | COc1c(O)cc(O)c2c(=O)cc(-c3ccc(Cl)cc3)oc12 | 34.2 | 33.9 |  |  |  |  | 
5 | COc1c(OCCCNCc2ccccc2)cc(O)c2c(=O)cc(-c3ccccc3)oc12 | 8.12 | 8.13 | 1.57 | 9.93 |  |  | 
6 | COc1c(OCCCCN(CCO)CCO)cc(O)c2c(=O)cc(-c3ccccc3)oc12 | 2.64 | 2.63 | 1.26 | 5.89 |  |  | 
7 | CCN(CC)CCCOc1c(O)cc(O)c2c(=O)cc(-c3ccccc3)oc12 | 67.5 | 67.6 | > 100 |  |  |  | 
8 | O=c1cc(-c2ccccc2)oc2c(OCCN3CCOCC3)c(O)cc(O)c12 | 39.9 | 39.8 | > 100 |  |  |  | 
9 | COc1c(O)cc(O)c2c(=O)cc(-c3ccc(F)cc3Br)oc12 | 33.5 | 33.9 |  |  |  |  | 
10 | O=c1cc(-c2ccccc2)oc2c(OCCCCN3CCOCC3)c(O)cc(O)c12 | 15.1 | 15.1 | 82.3 |  |  |  | 
11 | CN(C)CCOc1c(O)cc(O)c2c(=O)cc(-c3ccccc3)oc12 | 40 | 39.8 | > 100 |  |  |  | 
12 | CNCCCCOc1c(O)cc(O)c2c(=O)cc(-c3ccccc3)oc12 | 97 | 97.7 |  | > 100 |  |  | 
13 | COc1c(OCCCCN2CCN(C)CC2)cc(O)c2c(=O)cc(-c3ccccc3)oc12 | 1.12 | 1.12 | 1.5 | 5.3 |  |  | 
14 | CC(C)NCCCCOc1c(O)cc(O)c2c(=O)cc(-c3ccccc3)oc12 | 29.9 | 30.2 |  | 71.2 |  |  | 
15 | COc1c(OCCCN2CCOCC2)cc(O)c2c(=O)cc(-c3ccccc3)oc12 | 6.5 | 6.46 | 2.3 | 3.7 |  |  | 
16 | CC(C)NCCOc1c(O)cc(O)c2c(=O)cc(-c3ccccc3)oc12 | 14.1 | 14.1 |  | > 100 |  |  | 
17 | O=c1cc(-c2ccccc2)oc2c(OCCCN3CCOCC3)c(O)cc(O)c12 | 21.5 | 20.9 | > 100 |  |  |  | 
18 | CCCNCCCCOc1c(O)cc(O)c2c(=O)cc(-c3ccccc3)oc12 | 9.99 | 10 |  | 51 |  |  | 
19 | CCN(CC)CCOc1c(O)cc(O)c2c(=O)cc(-c3ccccc3)oc12 | 68.1 | 67.6 | > 100 |  |  |  | 
20 | CCN(CC)CCCCOc1cc(O)c2c(=O)cc(-c3ccccc3)oc2c1OC | 1.72 | 1.74 | 1 | 6.17 |  |  | 
21 | CN(C)CCCCOc1c(O)cc(O)c2c(=O)cc(-c3ccccc3)oc12 | 35.7 | 35.5 | > 100 |  |  |  | 
22 | COc1c(OCc2cnoc2C)cc(O)c2c(=O)cc(-c3ccccc3)oc12 | 21.7 | 21.9 | > 100 |  |  |  | 
23 | CN(C)CCCOc1c(O)cc(O)c2c(=O)cc(-c3ccccc3)oc12 | 41.8 | 41.7 | > 100 |  |  |  | 
24 | COc1c(OCCCN(CCO)CCO)cc(O)c2c(=O)cc(-c3ccccc3)oc12 | 3.79 | 3.8 | 3 | 6.45 |  |  | 
25 | CC(CO)NCCOc1c(O)cc(O)c2c(=O)cc(-c3ccccc3)oc12 (stereo not given) | 43.5 | 43.7 |  | 92.2 |  |  | 
26 | CNCCOc1c(O)cc(O)c2c(=O)cc(-c3ccccc3)oc12 | 64.2 | 64.6 |  | 59.9 |  |  | 

Row | Compound | IC50 ([1]; read-out: IC50) [µM] | IC50 ([1]; read-out: pIC50 (converted)) [µM] | IC50 [2] [µM] | IC50 [3] [µM] | Ratio IC50 [4] | Ratio IC50 [5] | Ratio IC50 [6]
27 | COc1c(OCCCN2CCN(C)CC2)cc(O)c2c(=O)cc(-c3ccccc3)oc12 | 31.6 | 31.6 | 9.9 | 52.7 |  |  | 
28 | COc1c(OCCCCN2CCCC2)cc(O)c2c(=O)cc(-c3ccccc3)oc12 | 3.61 | 3.63 | 1.53 | 6.34 |  |  | 
29 | COc1c(OCCCCN2CCCCC2)cc(O)c2c(=O)cc(-c3ccccc3)oc12 | 1.97 | 1.95 | 1.15 | 18.2 |  |  | 
30 | O=c1cc(-c2ccccc2)oc2c(OCCCN3CCCC3)c(O)cc(O)c12 | 58.5 | 58.9 | > 100 |  |  |  | 
31 | CN1CCN(CCOc2c(O)cc(O)c3c(=O)cc(-c4ccccc4)oc23)CC1 | 56.6 | 56.2 | > 100 |  |  |  | 
32 | COc1c(OCCCCNCc2ccccc2)cc(O)c2c(=O)cc(-c3ccccc3)oc12 | 45.7 | 45.7 | 4.59 | 48.1 |  |  | 
33 | COc1c(O)cc(O)c2c(=O)cc(-c3ccc(F)cc3)oc12 | 43.9 | 43.7 |  |  |  |  | 
34 | COc1c(O)cc(O)c2c(=O)cc(-c3ccc(C)cc3)oc12 | 24.9 | 25.1 |  |  |  |  | 
35 | CN1CCN(CCCOc2c(O)cc(O)c3c(=O)cc(-c4ccccc4)oc23)CC1 | 42.6 | 42.7 | > 100 |  |  |  | 
36 | COc1c(OCCCN2CCCC2)cc(O)c2c(=O)cc(-c3ccccc3)oc12 | 15.4 | 15.5 | 1.39 | 17.9 |  |  | 
37 | COc1c(O)cc(O)c2c(=O)cc(-c3ccc(Br)cc3)oc12 | 38.2 | 38 |  |  |  |  | 
38 | O=c1cc(-c2ccccc2)oc2c(OCCN3CCCC3)c(O)cc(O)c12 | 68.5 | 69.2 | 67.7 |  |  |  | 
39 | COc1c(OCc2nc3ccccc3[nH]2)cc(O)c2c(=O)cc(-c3ccccc3)oc12 | 29.4 | 29.5 | > 100 |  |  |  | 
40 | COc1c(OCCCN2CCNCC2)cc(O)c2c(=O)cc(-c3ccccc3)oc12 | 9.14 | 9.12 | 10.1 | 12 |  |  | 
41 | CN1CCN(CCCCOc2c(O)cc(O)c3c(=O)cc(-c4ccccc4)oc23)CC1 | 15.1 | 15.1 | > 100 |  |  |  | 
42 | CCCCNCCCCOc1c(O)cc(O)c2c(=O)cc(-c3ccccc3)oc12 | 38.9 | 38.9 |  | 61.9 |  |  | 
43 | COc1c(O)cc(O)c2c(=O)cc(-c3cccc(F)c3)oc12 | 59.4 | 58.9 |  |  |  |  | 
44 | CCN(CC)CCCOc1cc(O)c2c(=O)cc(-c3ccccc3)oc2c1OC | 3.33 | 3.31 | 1.83 | 13.3 |  |  | 
45 | O=c1cc(-c2ccccc2)oc2c(OCCNCCO)c(O)cc(O)c12 | 57 | 57.5 |  | 59.8 |  |  | 
46 | CCCCNCCOc1c(O)cc(O)c2c(=O)cc(-c3ccccc3)oc12 | 57.2 | 57.5 |  | 72.4 |  |  | 
47 | COc1c(OCCCCN2CCOCC2)cc(O)c2c(=O)cc(-c3ccccc3)oc12 | 3.3 | 3.31 | 1.52 | 5.3 |  |  | 
48 | CCCNCCOc1c(O)cc(O)c2c(=O)cc(-c3ccccc3)oc12 | 98.4 | 97.7 |  | 63 |  |  | 
49 | O=c1[nH]cc(F)c(=O)[nH]1 [FLUOROURACIL] | 17.2 |  | 16.1 | 10.1 |  |  | 
50 | COc1ccc(-c2cc(=O)c3c(O)cc(O)c(OC)c3o2)cc1 [GALANGUSTIN] | 42.4 | 42.7 |  |  |  |  | 
51 | COc1c(O)cc(O)c2c(=O)cc(-c3ccccc3)oc12 [WOGONIN] | 19 | 19.1 | 15.8 | 16.5 |  |  | 
